Counter-ions that a name gives are not always drawn.
Tests used:
Mus musculus = assay: Analgesic activity in Mus musculus (mouse) assessed as inhibition of acetic acid-induced writhing at 15 mg/kg, po administered 1 hr prior to acetic acid challenge measured at 5 to 20 min relative to control; format: functional
Rattus norvegicus [1] = assay: Ulcerogenic activity in 36 hr fasting Rattus norvegicus Sprague-Dawley (rat) stomach assessed as ulcer index at 25 mg/kg, po measured after 4 hr; format: toxicity, organism-based; design: dose 25 mg/kg, route oral; settings: in vivo
Rattus norvegicus [2] = assay: Anticholinergic activity in po dosed overnight fasted Rattus norvegicus (rat) ileum; format: functional; settings: read-out: pA2 (converted)
Rattus norvegicus [3] = assay: Anti-inflammatory activity in Rattus norvegicus Sprague-Dawley (rat) assessed as inhibition of carrageenan-induced paw edema at 3 mg/kg, po administered 1 hr prior to carrageenan-challenge measured after 3 hr by plethysmometric analysis relative to control; format: functional
[4] = Half life in aqueous buffer at 1 mg/ml at pH 7.4 measured for 6 hr; format: ADME

half-life at 1 mg/ml [4] [h]	SMILES	inhibition in vivo at 15 mg/kg (Mus musculus) [%]	UI (Rattus norvegicus [1])	Kb (Rattus norvegicus [2]) [µM]	inhibition in vivo at 3 mg/kg (Rattus norvegicus [3]) [%]
99	COc1ccc2c(c1)c(CC(=O)OCCN1CCCC1)c(C)n2C(=O)c1ccc(Cl)cc1	37.2	0.341	12	37.5
34	COc1ccc2c(c1)c(CC(=O)OCCN(C)C)c(C)n2C(=O)c1ccc(Cl)cc1	39.9	0.149	6.46	46.7
39	CCN(CC)CCOC(=O)Cc1c(C)n(C(=O)c2ccc(Cl)cc2)c2ccc(OC)cc12	23	0.317	32.4	34.6

Further lines, the compound ahead of its results:

SMILES	half-life at 1 mg/ml [4] [h]	inhibition in vivo at 15 mg/kg (Mus musculus) [%]	UI (Rattus norvegicus [1])	Kb (Rattus norvegicus [2]) [µM]	inhibition in vivo at 3 mg/kg (Rattus norvegicus [3]) [%]
COc1ccc2c(c1)c(CC(=O)OCCN1CCOCC1)c(C)n2C(=O)c1ccc(Cl)cc1	52	35.5	0.259	6.92	23.1
CN1C2CCC1CC(OC(=O)C(CO)c1ccccc1)C2 (stereo not drawn) [ENDO-ATROPINE SULFATE]	–	–	–	0.00631	–
COc1ccc2c(c1)c(CC(=O)O)c(C)n2C(=O)c1ccc(Cl)cc1 [INDOMETHACIN]	–	42.1	0.547	–	45.4
COc1ccc2c(c1)c(CC(=O)OCCN1CCCCC1)c(C)n2C(=O)c1ccc(Cl)cc1	66	35	0.134	9.12	16.6
